Source: US20150259371A1, “METHODS AND COMPOUNDS FOR INHIBITING GLYCOSYLTRANSFERASES” (SIMON FRASER UNIVERSITY, priority 2010, published 2015)

Key:
[1] = test system: UDP-sugar nucleotide pools in COS-7 cells; assay: UDP-sugar pools extracted from treated COS-7 cells, capillary electrophoresis; assay type: cell-based, African green monkey
Description: Capillary electrophoresis (CE): CE was performed on a ProteomeLab PA800 (Beckman-Coulter) using fused silica capillaries of […]×44 cm (to detector). The running buffer was 40 mM Na2B4O7 (Sigma), pH 9.5, containing 1.0% (wv) polyethylene glycol (MW 20,000; Fluka) and filtered prior to use. The capillary was conditioned by washing with 1 N NaOH (2 min, 20 psi), 18 MΩ H2O (3 min, 20 psi) and running buffer (5 min, 40 psi). After injecting a short (15 nL) H2O plug, samples were electrostatically introduced and pre-concentrated at the anode by applying a potential of -0.5 kV for 10 s according to the field-amplified sample injection technique described by Chien and Burgi^39. Electrophoresis was carried out at a constant voltage of 30 kV and capillary temperature of 22° C. Electropherograms were derived by measuring the absorbance at 254 (+/−10) nm at a rate of 4 Hz. Peaks were integrated using 32 Karat 5.0 software (Beckman-Coulter) and all peaks were normalized to the GDP-Glc internal standard.
Extraction of nucleotide sugars from cell lysates: COS-7 cells, on 10 cm plates, were treated with 0, 50, 250 or 1000 μM Ac-5SGlcNAc for 24 h; each condition was performed in triplicate. Cells were washed gently with PBS prior to the addition of 1 mL PBS containing 10 mM EDTA. Cells were incubated at 37° C. for […], the cells scraped from the plate, and pelleted by centrifugation (1000 rpm, 10 min, 4° C.). Cell pellets were immediately lysed by the addition of 750 μL 75% (vv) ethanol (−20° C.) and sonicated using a W-375 ultrasonic processor (Heat Systems Ultrasonics, Inc.). Insoluble material was removed by centrifugation (14,000 rpm, 15 min, 4° C.) and the supernatant was snap frozen and lyophilized^44,45. The crude extract was spiked with GDP-Glc (200 pmol) as an internal standard, dissolved in 0.5 mL 18 MΩ H2O and nucleotide sugars extracted using Envi-Carb graphite solid-phase extraction cartridges (200 mg) (Supelco) as described by Räbinä et al^38. Briefly, Envi-Carb cartridges were conditioned with 80% (vv) CH3CN and 20% 0.1% (vv) TFA (3 mL), followed by 18 MΩ H2O (6 mL), before samples were applied. After passing the samples through the SPE cartridge, the cartridge was sequentially washed with 2 mL of each of 18 MΩ H2O, 25% (vv) CH3CN, and 50 mM triethylammonium acetate (TEAA), pH 7.0. Sugar nucleotides were eluted with 3×1 mL 25% CH3CN in 50 mM TEAA, pH 7.0, passed through a 0.22 μm filter (Millipore), lyophilized, and stored at −20° C. until analysis. Extracted sugar nucleotides were dissolved in 200 μL 18 MΩ H2O and an aliquot was diluted 1:4 prior to characterization by CE using a method adapted from Feng et al^46.

[2] = test system: O-GlcNAc levels in primary CLL cells; assay: Western blot of O-GlcNAc levels in primary CLL cells; assay type: cell-based; conditions: 0-250 μM, 5 days
Description: Primary CLL cells, obtained from Dr. David Spaner at the University of Toronto, were tested for their response to Ac-5SGlcNAc (9). Cells were plated at a confluency of 1 million cells/mL, and treated with between 0-250 μM 9, in the presence or absence of cytokine (1000 U/mL IL-2 and 1 μg/mL Resiquimod) stimulation to mimic cancer progression. Cells were observed over the course of 5 days, and harvested after this time into SDS-PAGE loading buffer before being subjected to western blotting.

CC(=O)NC1C(OC(C)=O)SC(COC(C)=O)C(OC(C)=O)C1OC(C)=O [Compound 9, N-Acetyl-1,3,4,6-tetra-O-acetyl-α-D-5-thio-glucosamine]
UDP-GlcNAc levels relative to basal ([1]; 50 μM): more than 60 % of basal levels | UDP-Glc and UDP-Gal levels in cells ([1]; COS-7, 0-1000 μM, 24 h): uridine diphosphoglucose and uridine diphosphogalactose levels are unaffected | UDP-GlcNAc levels in cells ([1]; COS-7, 0-1000 μM, 24 h): small decrease in UDP-GlcNAc levels | amount of UDP-5SGlcNAc in cells ([1]; COS-7, 0-1000 μM, 24 h): dose dependent increase in the amount of UDP-5SGlcNAc in cells | O-GlcNAc levels [2]: O-GlcNAc levels were decreased in a dose-dependent fashion
